# Assay results as given in ChEMBL document CHEMBL1201862, “PubChem BioAssay data set” (2004).
# The source made the active and inactive calls.
# Experiments:
# [1] = target: Glucose-6-phosphate 1-dehydrogenase (Homo sapiens, UniProt P11413); test: inhibition of Homo sapiens G6PD, dose series – biochemical, fluorescence, selectivity assay for P. falciparum G6PD inhibitor project, dose response (AID 504792); type: functional
# [2] = target: T1, Calpain-2 catalytic subunit (Sus scrofa, UniProt P43367); test: m-calpain protease blockers, concentration series – biochemical, fluorogenic peptide substrate, dose response (AID 1420); type: functional
# T1 sequence (P43367 whole entry): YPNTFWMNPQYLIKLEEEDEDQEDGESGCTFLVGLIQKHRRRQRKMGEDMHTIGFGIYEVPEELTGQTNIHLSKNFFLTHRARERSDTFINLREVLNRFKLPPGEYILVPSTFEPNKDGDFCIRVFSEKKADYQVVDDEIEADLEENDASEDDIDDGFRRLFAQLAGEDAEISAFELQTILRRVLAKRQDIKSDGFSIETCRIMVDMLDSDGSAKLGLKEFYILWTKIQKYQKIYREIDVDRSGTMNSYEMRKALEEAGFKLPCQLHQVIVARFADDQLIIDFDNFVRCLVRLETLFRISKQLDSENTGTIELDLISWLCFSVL
# Mu-type opioid receptor = Mu-type opioid receptor (Homo sapiens, UniProt P35372); type: functional, cell-based;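 further: U2OS cells with beta-arrestin recruitment to OPRM1 by beta-gal complementation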
# Sequence of Mu-type opioid receptor (P35372 whole entry): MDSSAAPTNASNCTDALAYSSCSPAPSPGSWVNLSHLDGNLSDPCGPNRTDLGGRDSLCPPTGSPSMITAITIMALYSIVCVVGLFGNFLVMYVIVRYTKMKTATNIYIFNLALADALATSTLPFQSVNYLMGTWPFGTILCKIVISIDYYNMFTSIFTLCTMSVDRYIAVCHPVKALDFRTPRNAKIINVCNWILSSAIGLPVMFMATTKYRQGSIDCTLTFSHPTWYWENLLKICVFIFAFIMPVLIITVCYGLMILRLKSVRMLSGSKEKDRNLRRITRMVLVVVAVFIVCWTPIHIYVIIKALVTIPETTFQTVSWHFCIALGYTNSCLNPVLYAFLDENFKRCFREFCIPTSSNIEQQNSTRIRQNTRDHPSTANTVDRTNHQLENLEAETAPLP
# [3] = target: 5-hydroxytryptamine receptor 2A (Mus musculus, UniProt P35363); type: functional, cell-based;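 further: CHO-K1 cells with tagged receptor and beta-arrestin; agonist potency measured as compound-induced activation of the receptor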
# Sequence of 5-hydroxytryptamine receptor 2A (P35363 whole entry): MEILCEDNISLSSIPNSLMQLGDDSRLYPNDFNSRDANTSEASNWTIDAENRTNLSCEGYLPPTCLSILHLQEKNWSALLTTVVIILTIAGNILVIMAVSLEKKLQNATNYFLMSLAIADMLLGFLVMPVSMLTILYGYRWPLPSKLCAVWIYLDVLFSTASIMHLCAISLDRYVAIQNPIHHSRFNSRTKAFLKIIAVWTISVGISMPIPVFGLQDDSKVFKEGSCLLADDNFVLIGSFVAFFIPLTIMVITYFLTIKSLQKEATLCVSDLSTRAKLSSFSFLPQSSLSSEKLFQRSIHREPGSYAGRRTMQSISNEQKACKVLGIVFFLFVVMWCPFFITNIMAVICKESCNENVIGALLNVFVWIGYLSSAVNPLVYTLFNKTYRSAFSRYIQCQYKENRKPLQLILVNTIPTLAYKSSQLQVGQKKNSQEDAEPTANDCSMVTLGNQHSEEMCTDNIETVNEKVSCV
# [4] = target: Voltage-dependent T-type calcium channel subunit alpha-1H (Homo sapiens, UniProt O95180); type: functional;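 further: channel activity triggered by adding a high calcium stimulation buffer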
# Sequence of Voltage-dependent T-type calcium channel subunit alpha-1H (O95180 whole entry): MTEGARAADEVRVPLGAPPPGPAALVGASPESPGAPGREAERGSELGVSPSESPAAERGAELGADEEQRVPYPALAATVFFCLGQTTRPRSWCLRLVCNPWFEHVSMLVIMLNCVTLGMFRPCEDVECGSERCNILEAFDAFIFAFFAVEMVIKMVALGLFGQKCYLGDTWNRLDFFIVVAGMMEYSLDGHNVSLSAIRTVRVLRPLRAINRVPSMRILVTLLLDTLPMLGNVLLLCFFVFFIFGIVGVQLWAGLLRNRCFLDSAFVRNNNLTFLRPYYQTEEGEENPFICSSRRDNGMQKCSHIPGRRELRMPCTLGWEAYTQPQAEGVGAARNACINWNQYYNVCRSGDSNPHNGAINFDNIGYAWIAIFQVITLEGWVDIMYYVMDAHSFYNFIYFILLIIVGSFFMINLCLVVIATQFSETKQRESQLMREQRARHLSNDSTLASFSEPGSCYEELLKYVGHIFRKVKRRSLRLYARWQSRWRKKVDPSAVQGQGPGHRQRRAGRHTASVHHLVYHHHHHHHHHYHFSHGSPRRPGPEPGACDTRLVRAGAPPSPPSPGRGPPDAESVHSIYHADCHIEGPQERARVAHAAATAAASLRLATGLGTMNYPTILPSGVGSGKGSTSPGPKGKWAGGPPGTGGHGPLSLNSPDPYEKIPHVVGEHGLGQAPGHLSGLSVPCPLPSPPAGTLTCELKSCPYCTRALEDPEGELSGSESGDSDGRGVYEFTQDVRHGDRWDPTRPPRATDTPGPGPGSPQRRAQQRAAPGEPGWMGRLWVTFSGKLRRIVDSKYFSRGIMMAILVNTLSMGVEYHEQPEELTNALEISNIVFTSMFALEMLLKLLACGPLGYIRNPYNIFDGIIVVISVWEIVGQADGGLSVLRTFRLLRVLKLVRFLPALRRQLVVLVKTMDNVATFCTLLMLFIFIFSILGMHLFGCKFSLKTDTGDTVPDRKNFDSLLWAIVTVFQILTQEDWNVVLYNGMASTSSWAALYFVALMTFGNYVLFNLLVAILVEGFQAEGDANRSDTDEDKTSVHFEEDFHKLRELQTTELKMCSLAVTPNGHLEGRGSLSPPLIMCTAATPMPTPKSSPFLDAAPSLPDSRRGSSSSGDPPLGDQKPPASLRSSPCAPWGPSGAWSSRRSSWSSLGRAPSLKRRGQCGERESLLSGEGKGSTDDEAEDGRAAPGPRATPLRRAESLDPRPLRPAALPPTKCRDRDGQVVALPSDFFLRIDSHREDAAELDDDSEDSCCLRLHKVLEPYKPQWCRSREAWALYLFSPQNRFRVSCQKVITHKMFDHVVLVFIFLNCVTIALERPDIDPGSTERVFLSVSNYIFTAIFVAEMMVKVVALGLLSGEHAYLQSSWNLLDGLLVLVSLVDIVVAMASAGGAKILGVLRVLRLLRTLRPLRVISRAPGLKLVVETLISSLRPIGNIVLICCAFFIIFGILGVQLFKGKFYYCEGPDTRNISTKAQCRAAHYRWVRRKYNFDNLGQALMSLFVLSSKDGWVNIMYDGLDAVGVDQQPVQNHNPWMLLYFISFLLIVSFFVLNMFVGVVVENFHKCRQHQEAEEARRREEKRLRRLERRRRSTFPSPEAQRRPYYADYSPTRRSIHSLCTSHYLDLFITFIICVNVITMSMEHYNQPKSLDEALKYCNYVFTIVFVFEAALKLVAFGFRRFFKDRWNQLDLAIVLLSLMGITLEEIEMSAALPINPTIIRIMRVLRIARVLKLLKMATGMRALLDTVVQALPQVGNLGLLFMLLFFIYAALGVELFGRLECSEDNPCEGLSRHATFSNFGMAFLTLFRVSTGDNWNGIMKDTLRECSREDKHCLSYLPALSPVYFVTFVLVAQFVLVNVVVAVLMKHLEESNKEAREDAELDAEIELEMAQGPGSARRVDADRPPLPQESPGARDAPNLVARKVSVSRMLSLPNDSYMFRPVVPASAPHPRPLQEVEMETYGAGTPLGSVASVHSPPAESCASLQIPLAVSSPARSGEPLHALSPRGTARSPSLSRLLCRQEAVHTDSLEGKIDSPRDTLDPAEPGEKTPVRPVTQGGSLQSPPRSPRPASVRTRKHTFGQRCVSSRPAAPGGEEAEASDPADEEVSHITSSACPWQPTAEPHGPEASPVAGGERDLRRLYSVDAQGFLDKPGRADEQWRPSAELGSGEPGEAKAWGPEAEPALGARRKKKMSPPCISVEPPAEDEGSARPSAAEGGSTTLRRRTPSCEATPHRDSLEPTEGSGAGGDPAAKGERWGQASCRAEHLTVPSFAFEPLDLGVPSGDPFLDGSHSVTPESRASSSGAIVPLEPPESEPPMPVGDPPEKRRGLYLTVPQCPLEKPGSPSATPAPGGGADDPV
# [5] = target: Induced myeloid leukemia cell differentiation protein Mcl-1 (Homo sapiens, UniProt Q07820); type: functional
# Sequence of Induced myeloid leukemia cell differentiation protein Mcl-1 (Q07820 whole entry): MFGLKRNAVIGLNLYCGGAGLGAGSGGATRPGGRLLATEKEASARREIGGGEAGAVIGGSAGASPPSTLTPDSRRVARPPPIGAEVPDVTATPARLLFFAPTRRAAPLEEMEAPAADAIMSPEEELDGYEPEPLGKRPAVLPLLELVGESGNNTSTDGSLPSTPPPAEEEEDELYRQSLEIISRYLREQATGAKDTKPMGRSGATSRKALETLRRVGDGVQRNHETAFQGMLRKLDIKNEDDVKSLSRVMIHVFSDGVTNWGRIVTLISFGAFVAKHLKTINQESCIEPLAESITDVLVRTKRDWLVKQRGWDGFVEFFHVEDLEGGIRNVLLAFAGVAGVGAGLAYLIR
# Cytochrome P450 2C9 = Cytochrome P450 2C9 (Homo sapiens, UniProt P11712)
# Cytochrome P450 2D6 = Cytochrome P450 2D6 (Homo sapiens, UniProt P10635);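 further: CYP2D6 member of a cytochrome P450 panel assay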
# Cytochrome P450 2C19 = Cytochrome P450 2C19 (Homo sapiens, UniProt P33261); test: Cytochrome panel assay with activity outcomes. Panel member name: p450-cyp2c19 Compounds with AC50 equal or less than 10 uM are considered active; type: functional; settings: read-out: AC50
# [6] = target: T2, Corticotropin-releasing factor receptor 2/Corticotropin-releasing factor-binding protein (Homo sapiens, UniProt P24387+Q13324); test: activators of CRF receptor 2 with binding protein – uHTS hits, confirmation (AID 602473); type: functional; settings: read-out: EC50_Mean
# T2 sequence (Q13324 whole entry): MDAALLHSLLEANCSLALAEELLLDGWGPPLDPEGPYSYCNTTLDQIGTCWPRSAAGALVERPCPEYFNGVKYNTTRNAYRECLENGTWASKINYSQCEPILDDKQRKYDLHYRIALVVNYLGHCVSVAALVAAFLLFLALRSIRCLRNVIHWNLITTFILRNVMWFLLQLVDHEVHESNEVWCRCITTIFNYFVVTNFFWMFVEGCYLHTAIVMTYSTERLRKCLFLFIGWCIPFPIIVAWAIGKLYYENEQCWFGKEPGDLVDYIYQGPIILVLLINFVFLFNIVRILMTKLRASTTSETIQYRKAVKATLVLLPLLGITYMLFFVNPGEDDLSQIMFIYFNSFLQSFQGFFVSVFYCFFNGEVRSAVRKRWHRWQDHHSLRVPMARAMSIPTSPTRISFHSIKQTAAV
# T2 sequence (P24387 whole entry): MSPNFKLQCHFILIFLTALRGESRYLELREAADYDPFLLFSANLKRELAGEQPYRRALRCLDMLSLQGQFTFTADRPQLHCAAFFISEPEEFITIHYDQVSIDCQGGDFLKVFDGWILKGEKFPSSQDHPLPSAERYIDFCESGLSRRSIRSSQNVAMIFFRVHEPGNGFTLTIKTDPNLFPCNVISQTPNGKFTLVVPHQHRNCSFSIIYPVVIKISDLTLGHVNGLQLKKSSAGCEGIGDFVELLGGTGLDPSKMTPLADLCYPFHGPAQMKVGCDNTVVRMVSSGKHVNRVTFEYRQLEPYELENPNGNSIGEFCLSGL
# [7] = target: T2, Corticotropin-releasing factor receptor 2/Corticotropin-releasing factor-binding protein; test: Dose Response confirmation of uHTS hits for small molecule antagonists of the CRF-binding protein and CRF-R2 receptor complex.; type: functional; settings: read-out: IC50_Mean
# Cytochrome P450 1A2 = target: T3, Cytochrome P450 1A2 (Homo sapiens, UniProt P05177);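 further: PubChem cytochrome P450 panel assay, CYP1A2 panel member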
# T3 sequence (P05177 whole entry): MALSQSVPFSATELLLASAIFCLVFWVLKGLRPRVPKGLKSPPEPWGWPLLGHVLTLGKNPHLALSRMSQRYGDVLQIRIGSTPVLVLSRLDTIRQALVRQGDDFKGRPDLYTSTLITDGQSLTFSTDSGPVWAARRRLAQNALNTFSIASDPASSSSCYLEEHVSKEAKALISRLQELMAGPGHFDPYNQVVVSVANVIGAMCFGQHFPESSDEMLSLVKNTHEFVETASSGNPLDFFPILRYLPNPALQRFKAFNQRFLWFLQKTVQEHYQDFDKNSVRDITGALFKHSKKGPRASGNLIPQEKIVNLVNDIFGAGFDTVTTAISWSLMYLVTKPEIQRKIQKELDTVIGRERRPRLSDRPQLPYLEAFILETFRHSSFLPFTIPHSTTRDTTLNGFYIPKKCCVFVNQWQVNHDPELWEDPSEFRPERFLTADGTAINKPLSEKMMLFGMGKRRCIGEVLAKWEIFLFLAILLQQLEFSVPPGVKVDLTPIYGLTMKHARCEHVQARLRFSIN
# Cytochrome P450 3A4 = Cytochrome P450 3A4 (Homo sapiens, UniProt P08684);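 further: CYP3A4 tested as one member of a cytochrome P450 panel screen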
# Sequence of Cytochrome P450 3A4 (P08684 whole entry): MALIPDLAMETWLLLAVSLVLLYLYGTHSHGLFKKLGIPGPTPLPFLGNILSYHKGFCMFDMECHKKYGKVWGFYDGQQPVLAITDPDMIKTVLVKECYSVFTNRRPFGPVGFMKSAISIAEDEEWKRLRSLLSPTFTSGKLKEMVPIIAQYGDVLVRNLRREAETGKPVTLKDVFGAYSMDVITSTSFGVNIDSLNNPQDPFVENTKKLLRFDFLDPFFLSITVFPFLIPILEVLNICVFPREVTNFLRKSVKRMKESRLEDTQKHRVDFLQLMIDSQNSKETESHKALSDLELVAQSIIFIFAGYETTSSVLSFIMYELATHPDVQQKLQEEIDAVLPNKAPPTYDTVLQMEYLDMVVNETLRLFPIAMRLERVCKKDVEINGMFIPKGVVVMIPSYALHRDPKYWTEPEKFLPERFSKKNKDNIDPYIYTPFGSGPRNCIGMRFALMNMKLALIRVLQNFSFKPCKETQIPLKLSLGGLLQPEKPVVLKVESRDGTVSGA
# [8] = target: T4, Short transient receptor potential channel 4 (Mus musculus, UniProt Q9QUQ5); test: block of DAMGO-driven TRPC4 calcium entry – cell-based, HEK293 TRPC4/mu-opioid, Fluo-4 calcium, dose response (AID 434942); type: functional;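 further: potency of inhibitors blocking the TRPC4 calcium response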
# T4 sequence (Q9QUQ5 whole entry): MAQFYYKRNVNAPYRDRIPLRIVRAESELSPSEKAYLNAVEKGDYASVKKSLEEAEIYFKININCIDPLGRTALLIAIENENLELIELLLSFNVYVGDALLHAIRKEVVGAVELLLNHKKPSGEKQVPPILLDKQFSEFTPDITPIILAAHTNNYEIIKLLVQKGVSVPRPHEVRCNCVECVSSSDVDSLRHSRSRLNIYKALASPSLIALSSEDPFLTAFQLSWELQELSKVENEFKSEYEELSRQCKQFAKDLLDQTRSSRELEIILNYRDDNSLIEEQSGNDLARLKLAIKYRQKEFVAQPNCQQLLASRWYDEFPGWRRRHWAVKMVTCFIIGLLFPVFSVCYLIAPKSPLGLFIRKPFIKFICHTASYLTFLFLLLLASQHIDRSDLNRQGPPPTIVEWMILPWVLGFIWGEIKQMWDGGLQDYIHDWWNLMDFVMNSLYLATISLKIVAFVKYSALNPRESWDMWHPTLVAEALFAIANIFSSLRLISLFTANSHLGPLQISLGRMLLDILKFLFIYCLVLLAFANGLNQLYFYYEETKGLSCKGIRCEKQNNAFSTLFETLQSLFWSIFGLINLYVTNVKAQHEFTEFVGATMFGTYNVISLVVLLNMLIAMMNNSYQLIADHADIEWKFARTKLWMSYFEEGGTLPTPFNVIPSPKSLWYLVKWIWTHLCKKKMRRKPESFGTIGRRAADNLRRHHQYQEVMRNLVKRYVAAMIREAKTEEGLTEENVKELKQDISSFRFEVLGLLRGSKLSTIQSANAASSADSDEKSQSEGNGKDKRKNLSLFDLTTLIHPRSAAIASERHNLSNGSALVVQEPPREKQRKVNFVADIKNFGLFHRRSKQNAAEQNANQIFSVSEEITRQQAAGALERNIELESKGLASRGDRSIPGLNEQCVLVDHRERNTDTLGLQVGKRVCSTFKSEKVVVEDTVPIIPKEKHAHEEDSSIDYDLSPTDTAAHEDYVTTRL
# [9] = Counterscreen for activators of the function of SWI/SNF related, matrix associated, actin dependent regulator of chromatin, subfamily a, member 2 (SMARCA2, BRM): Luminescence-based cell-based high throughput dose response assay to identify non-selective compounds using the VP16 reporter assay.; type: functional
# [10] = target: SWI/SNF-related matrix-associated actin-dependent regulator of chromatin subfamily A member 2 (Homo sapiens, UniProt P51531); test: Luminescence-based cell-based high throughput dose response assay to identify activators of the function of SWI/SNF related, matrix associated, actin dependent regulator of chromatin, subfamily a, member 2 (SMARCA2, BRM).; type: functional
# Prothrombin = Prothrombin (Homo sapiens, UniProt P00734); test: Thrombin 1536 HTS Dose Response Confirmation. [Related pubchem assays: 1046 (Thrombin 1536 HTS; hits were confirmed in this assay)]; type: functional
# [11] = target: T5, Heat shock factor protein 1 (Mus musculus, UniProt P38532); test: decrease of HSF1-responsive luciferase luminescence – cell-based, NIH3T3, dose retest, confirmation (AID 2382); type: functional;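 further: NIH3T3 fibroblasts with HSF1-driven luciferase reporter stressed by proteasome inhibitor MG132; luminescence from HSF1-driven luciferase expression after 8 hours of MG132 stress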
# T5 sequence (P38532 whole entry): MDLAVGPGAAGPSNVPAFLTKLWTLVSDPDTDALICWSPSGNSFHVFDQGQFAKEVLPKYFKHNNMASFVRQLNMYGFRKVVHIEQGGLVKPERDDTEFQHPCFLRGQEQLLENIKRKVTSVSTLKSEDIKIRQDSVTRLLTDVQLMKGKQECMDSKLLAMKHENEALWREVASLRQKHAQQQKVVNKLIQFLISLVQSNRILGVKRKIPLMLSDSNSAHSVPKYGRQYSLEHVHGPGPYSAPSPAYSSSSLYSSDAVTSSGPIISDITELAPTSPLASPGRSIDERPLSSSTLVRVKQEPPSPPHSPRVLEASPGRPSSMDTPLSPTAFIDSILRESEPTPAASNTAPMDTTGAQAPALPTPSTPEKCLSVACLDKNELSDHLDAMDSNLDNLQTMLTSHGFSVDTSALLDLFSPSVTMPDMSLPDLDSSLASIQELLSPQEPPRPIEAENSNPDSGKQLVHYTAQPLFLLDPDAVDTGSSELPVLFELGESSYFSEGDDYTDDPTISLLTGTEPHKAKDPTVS
# [12] = viability of PTEN-deleted HCT116 cells – cell-based, HCT116 PTEN knockout, dose response (AID 1047); type: functional;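 further: HCT116 colon tumor cells with PTEN knocked out; cells exposed to compound for 60 hours before readout; potency for loss of cell viability measured by luminescence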
# [13] = viability of HCT116 lacking mutant beta-catenin – cell-based, human colon tumor, dose response (AID 1045); type: functional;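 further: HCT116 colon tumor cells with beta catenin knocked out; cells exposed to compound for 60 hours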
# cells [14] = type: functional, cell-based
# cells [15] = type: functional, cell-based; remark: listed apart in the source
# Sequence of Glucose-6-phosphate 1-dehydrogenase (P11413 whole entry): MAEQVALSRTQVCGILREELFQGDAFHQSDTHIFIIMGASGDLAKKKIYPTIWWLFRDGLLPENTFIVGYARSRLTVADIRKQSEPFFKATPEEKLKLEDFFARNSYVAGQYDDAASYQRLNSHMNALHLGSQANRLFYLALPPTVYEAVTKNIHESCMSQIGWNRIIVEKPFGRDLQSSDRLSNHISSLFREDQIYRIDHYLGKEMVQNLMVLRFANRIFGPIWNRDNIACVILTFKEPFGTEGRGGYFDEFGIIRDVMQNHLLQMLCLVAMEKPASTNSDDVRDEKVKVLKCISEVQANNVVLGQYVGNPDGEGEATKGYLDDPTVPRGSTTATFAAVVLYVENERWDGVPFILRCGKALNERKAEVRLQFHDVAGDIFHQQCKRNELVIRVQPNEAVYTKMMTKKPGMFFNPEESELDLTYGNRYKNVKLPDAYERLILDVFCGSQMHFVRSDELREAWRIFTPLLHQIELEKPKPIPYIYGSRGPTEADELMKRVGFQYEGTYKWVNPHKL
structure (smiles),measurement,setting,value
CCn1c(SCc2nc3scc(-c4ccccc4)c3c(=O)[nH]2)nnc1-c1cccs1,IC50,[1],> 80 µM (inactive)
Cc1ccc(N2CCN(C3=NC(=O)/C(=C\c4cccs4)S3)CC2)cc1,IC50,[2],19.3 µM (not active)
O=S(=O)(c1ccc(OCC(O)CN2CCN(c3ccccc3O)CC2)cc1)N1CCOCC1 (centres undefined),EC50,Mu-type opioid receptor,92.5 µM (inactive)
same,EC50,[3],76.1 µM (inactive)
COc1ccc(-c2nnc(N3CCCCC3)c3ccccc23)cc1,EC50,[4],11.3 µM (active)
O=S(=O)(c1ccc(OCC(O)CN2CCN(c3ccccc3Cl)CC2)cc1)N1CCOCC1 (centres undefined),EC50,Mu-type opioid receptor,92.5 µM (inactive)
same,EC50,[3],25.4 µM (inactive)
O=C(Nc1ccc(Cl)cc1)N1CCc2[nH]c3ccccc3c2C1,IC50,[5],2.32 µM (not active)
same,AC50,Cytochrome P450 2C9,3.98 µM (inconclusive)
same,AC50,Cytochrome P450 2D6,22.4 µM (inconclusive)
same,EC50,[4],0.802 µM (active)
same,AC50,Cytochrome P450 2C19,2 µM (inconclusive)
CC1CCC2=NN(C(=O)c3ccco3)C(O)(C(F)(F)F)C2C1 (centres undefined),EC50,[6],> 53 µM (inactive)
same,IC50,[7],> 47.1 µM (inactive)
CCC(C(=O)Nc1cccc(C(F)(F)F)c1)c1ccccc1 (centres undefined),AC50,Cytochrome P450 1A2,2.51 µM (inconclusive)
same,AC50,Cytochrome P450 3A4,14.1 µM (inconclusive)
same,EC50,[4],2.89 µM (active)
O=C1c2ccccc2C(=O)N1CCc1csc(-c2ccc(F)cc2)n1,IC50,[2],> 50 µM (not active)
COCCn1c(SCc2ccccc2F)nc2ccccc2c1=O,EC50,[8],1.88 µM (active)
same,IC50,[2],9.21 µM (not active)
C[C@H](NC(=O)Nc1ccc2c(c1)OCCO2)C(=O)O,EC50,[6],> 53 µM (inactive)
same,IC50,[7],> 47.1 µM (inactive)
O=C(CN1C(=O)C2CC=CCC2C1=O)Nc1nnc(SCc2ccc(Cl)cc2)s1 (centres undefined),EC50,[4],5.35 µM (active)
Cc1ccc(-c2noc(CSc3nnnn3C3CCCCC3)n2)cc1,EC50,[4],1.95 µM (active)
COc1ccc(CNc2nc3c(c(=O)n(Cc4ccc(Br)cc4)c(=O)n3C)n2C)cc1,IC50,[2],2.3 µM (active)
Nc1nc(CN2CCN(Cc3ccccc3)CC2)nc(Nc2ccc3c(c2)OCCO3)n1,EC50,[9],> 91.2 µM (inactive)
same,EC50,[10],> 91.2 µM (inactive)
CC(=O)c1cccc(OCC(O)CN2CC=C(c3ccccc3)CC2)c1 (centres undefined),EC50,Mu-type opioid receptor,92.5 µM (inactive)
same,EC50,[3],0.0752 µM (active)
Cc1ccc(CN(C(=O)c2ccccc2[N+](=O)[O-])C2CCS(=O)(=O)C2)o1 (centres undefined),EC50,[6],> 53 µM (inactive)
same,IC50,[7],> 47.1 µM (inactive)
Cc1ccc(S(=O)(=O)N(C)C)cc1NC(=O)CSc1nc2cc(Cl)c[nH]c-2n1,IC50,[1],> 80 µM (inactive)
O=C(Oc1oc(-c2ccco2)nc1/C=N/c1ccccc1)c1ccoc1,IC50,Prothrombin,1.37 µM (active)
same,EC50,[11],> 195 µM (not active)
C=CCOc1ccc(/C=N/N2C(=O)C(CC(=O)Nc3ccc(F)cc3F)S/C2=N\C)cc1 (centres undefined),EC50,[12],17.6 µM (active)
same,EC50,[13],79.4 µM (active)
same,IC50,[2],> 50 µM (not active)
COc1cccc(/C=N\NC(=O)Cn2nnc3ccccc32)c1O,EC50,cells [14],172 µM (active)
same,EC50,cells [15],> 350 µM (not active)
O=C(CCN1CCN(c2ccccc2)CC1)N/N=C/c1ccccc1OC(F)F,EC50,Mu-type opioid receptor,92.5 µM (inactive)
same,EC50,[3],25.4 µM (inactive)
CCOc1cccc(-c2c(C(=O)N/N=C/c3ccc(Br)cc3)nnn2-c2nonc2N)c1,EC50,cells [14],> 350 µM (not active)
same,EC50,cells [15],160 µM (active)
Cc1ccc(S(=O)(=O)Oc2cccc(/C=N/Nc3ccc(C(=O)O)cc3)c2)cc1,IC50,[1],53.5 µM (inactive)
